Patent US20080131500A1, “METHODS AND COMPOSITIONS FOR RAPID INACTIVATION OF PROTEINS” (The Board of Regents of The University of Texas System, priority 2006, published 2008)
Read-outs that look alike come from different tables or passages of the source.

Experiments:
hirudin [1] = biological target: T1, hirudin (Hirudo medicinalis, UniProt P01050); assay: Reduction of native hirudin by DTT at pH 9.0, 11.0 and 13.5, HPLC analysis; format: biochemical; settings: for rate constant of hirudin reduction: 50 mM DTT, 22° C.
Description: FIG. 2. […] N-Hirudin (1 mg/ml) was reduced with 50 mM DTT at 22° C. in solutions of pH 9.0, pH 11.0 and pH 13.5. The buffers of pH 9.0 and 11.0 were prepared by the titration of 0.1N NaHC03 and 0.1N NaOH. The samples were quenched at different time points by acidification and analyzed by HPLC using the following conditions. Solvent A for HPLC was water containing 0.1% trifluoroacetic acid. Solvent B was acetonitrile/water (9:1, by volume) containing 0.086% trifluoroacetic acid. The gradient was 27% to 36% solvent B linear in 25 min. The flow rate was 0.5 ml/min. The column was Zorbax 300SB C-18 for peptides and proteins, 4.6 mm, 5 pm. Column temperature was 22° C. N indicates native hirudin.
Reduction of protein disulfide bonds by a reducing agent (such as β-mercaptoethanol, dithiothreitol or tris-carboxyethyl-phosphine) is typically performed at pH 8.0-8.5. […] Hirudin (a 3-disulfide protein) is used as an example here. Native hirudin was incubated with 20 mM, 50 mM or 100 mM of DTT at 22° C. in solutions of pH 9.0, 11.0 and 13.5 respectively. […] Thus, increase of pH from 9.0 to 13.5 accelerates the rate of reduction of hirudin at room temperature by approximately 30-fold. Similar effect of pH was also observed at DTT concentrations of 20 mM and 100 mM.

hirudin [2] = biological target: T1, hirudin; assay: Reduction of native hirudin in 1N NaOH, 50 mM DTT with added denaturant (GdnCl or GdnSCN), HPLC analysis; format: biochemical
Description: FIG. 3. […] N indicates native hirudin.
Denaturant is known to destabilize the conformation of native protein and decrease the covalent stability of disulfide bonds against reduction. In addition to the optimized pH (13.5) for hirudin reduction described above, denaturant (GdnCl and GdnSCN) was included to further accelerate the rate of reduction. Native hirudin (N) was incubated at 22° C. in solutions comprising 1N NaOH, 50 mM DTT and increasing concentrations of GdnCl (0.2M-2M) or GdnSCN (0.1M-I M). […] In the presence of 1M of GdnSCN, the reduction of hirudin completes within one minute.

[3] = cited from earlier work

T1 sequence (P01050 whole entry, looked up): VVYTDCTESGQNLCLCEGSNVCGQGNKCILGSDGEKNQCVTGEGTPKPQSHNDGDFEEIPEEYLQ

## O[C@H](CS)[C@H](O)CS (racemic) [DTT, dithiothreitol]
Hirudin [1]; pH 9.0
  rate constant of hirudin reduction: 0.00377 min⁻¹
Hirudin [1]; pH 11.0
  rate constant of hirudin reduction: 0.0235 min⁻¹
Hirudin [1]; increase of pH from 9.0 to 13.5, room temperature
  acceleration of the rate of reduction of hirudin: approximately 30 fold

## Cl.N=C(N)N [GdnCl, guanidinium chloride]
Hirudin [2]; 6M GdnCl versus 1M GdnSCN
  potency of 6M GdnCl relative to 1M GdnSCN: about 3 fold
Hirudin [2]; acceleration of hirudin reduction in 1N NaOH, 50 mM DTT
  potency relative to GdnSCN: approximately 50%

## N#CS.N=C(N)N [GdnSCN, guanidine thiocyanate]
Hirudin [2]; 1M GdnSCN in 1N NaOH, 50 mM DTT, 22° C.
  time to complete reduction of hirudin: one
Hirudin [2]; inclusion of 0.2M GdnSCN in 1N NaOH, 50 mM DTT, 22° C.
  further acceleration of the reduction of hirudin: 2.5 fold
Hirudin [2]; inclusion of 0.5M GdnSCN in 1N NaOH, 50 mM DTT, 22° C.
  further acceleration of the reduction of hirudin: 5 fold

## hirudin
[3]; 6 M GdnCl
  hirudin in a denatured state: 67%
[3]; 8 M urea
  hirudin in a denatured state: 14%
